Legend:
[1] = tested on: BT474C1 cells; assay: Cell proliferation assay (CellTiter-Glo), BT474C1; assay type: cell-based, human; conditions: BT474C1, 72 hrs
Procedure: BT474C1-Luci Mono1 cells were seeded in 384-well plates at 1500 cells/well in DMEM medium containing 10% FBS and 1 mM Oxaloacetic acid (OAA). A431 cells were seeded in 384-well plates at 1,000 cells/well in DMEM medium containing 10% FBS. After overnight incubation, cells were treated with compounds at various concentrations for 3 days. Then cell viability was measured using a CellTiter-Glo Luminescent Cell Viability Assay from Promega Corp. according to the manufacturer's instructions.

[2] = Human hepatocyte intrinsic clearance; assay type: in vitro ADME; conditions: human hepatocytes; for hepatocyte CLint: read-out: Human Heps Clint
[3] = molecular target: T1, wild-type EGFR (Homo sapiens, UniProt P00533); assay: pEGFR MSD assay in A431 cells; assay type: cell-based; conditions: A431, 4 hrs treatment, EGF stimulation
T1 construct: endogenous in cells; host or cells: A431
T1 sequence (P00533 25-1210): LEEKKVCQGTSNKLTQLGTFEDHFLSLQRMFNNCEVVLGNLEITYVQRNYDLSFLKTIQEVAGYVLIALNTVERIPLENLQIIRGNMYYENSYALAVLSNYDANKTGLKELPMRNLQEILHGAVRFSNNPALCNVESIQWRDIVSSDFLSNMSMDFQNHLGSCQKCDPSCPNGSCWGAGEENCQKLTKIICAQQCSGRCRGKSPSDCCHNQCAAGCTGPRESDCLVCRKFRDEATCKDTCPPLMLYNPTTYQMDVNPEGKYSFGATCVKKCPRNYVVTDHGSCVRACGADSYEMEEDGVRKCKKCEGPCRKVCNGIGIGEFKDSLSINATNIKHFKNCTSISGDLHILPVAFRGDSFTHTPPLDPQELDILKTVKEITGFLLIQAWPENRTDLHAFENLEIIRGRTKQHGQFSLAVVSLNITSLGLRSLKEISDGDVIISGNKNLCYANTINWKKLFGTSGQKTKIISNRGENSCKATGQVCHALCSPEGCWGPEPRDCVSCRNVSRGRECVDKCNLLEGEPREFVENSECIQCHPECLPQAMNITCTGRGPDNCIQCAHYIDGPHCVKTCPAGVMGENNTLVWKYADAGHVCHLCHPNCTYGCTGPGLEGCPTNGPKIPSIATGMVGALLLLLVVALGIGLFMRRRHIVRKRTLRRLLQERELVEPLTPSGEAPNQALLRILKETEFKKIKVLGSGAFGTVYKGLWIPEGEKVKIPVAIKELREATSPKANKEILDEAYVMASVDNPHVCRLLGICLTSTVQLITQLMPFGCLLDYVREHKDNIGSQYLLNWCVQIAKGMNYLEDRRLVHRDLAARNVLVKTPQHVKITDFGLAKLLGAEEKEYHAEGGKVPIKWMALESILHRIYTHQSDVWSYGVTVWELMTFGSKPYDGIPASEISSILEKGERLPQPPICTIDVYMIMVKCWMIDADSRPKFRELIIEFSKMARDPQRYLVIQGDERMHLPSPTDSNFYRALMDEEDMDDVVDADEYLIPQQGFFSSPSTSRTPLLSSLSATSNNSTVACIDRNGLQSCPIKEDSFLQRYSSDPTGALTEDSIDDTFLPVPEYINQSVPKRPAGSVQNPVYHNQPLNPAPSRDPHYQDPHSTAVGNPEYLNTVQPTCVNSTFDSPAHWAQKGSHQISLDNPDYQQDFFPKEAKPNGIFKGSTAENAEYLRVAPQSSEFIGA
Procedure: (§1) A431 and BT474C1-Luci Mono1 cells were seeded in 96-well plates at 20,000 cells/well in DMEM medium containing 1% FBS. After overnight incubation, all cells were treated with compounds at a series of concentrations for 4 hrs. For A431 cell line, an extra stimulation with recombinant human EGF (100 ng/ml for 10 minutes) is applied to activate wild-type EGFR following compound treatment. pEGFR^Y1068 and total EGFR levels were measured by an electro chemiluminescent method (MULTI-SPOT®96 4-Spot HB Prototype EGFR Triplex […]: pEGFR (Y1068), Total EGFR; MESO SCALE DISCOVERY, Cat# N45ZB-1) with MSD SECTOR® Imager, which outputs the ratio of pEGFR/total EGFR for each well. pHER2^Y1248 and total HER2 levels were measured similarly using pHER2 (Y1248) Assay Whole Cell Lysate Kit (MESO SCALE DISCOVERY, Cat# K151CLD-3). The percentage of inhibition was calculated as: % Inhibition = 100 x [1 - (ratio of the sample well - ratio of Min ctrl well)/ (ratio of Max ctrl well - ratio of Min ctrl well)].

[4] = molecular target: T2, P-gp (MDR1) (Homo sapiens, UniProt P08183); assay: P-gp efflux ratio, bi-directional transport assay; assay type: in vitro ADME
T2 construct: expressed in transfected cells; host or cells: MDCKII-MDR1
T2 sequence (P08183 whole entry): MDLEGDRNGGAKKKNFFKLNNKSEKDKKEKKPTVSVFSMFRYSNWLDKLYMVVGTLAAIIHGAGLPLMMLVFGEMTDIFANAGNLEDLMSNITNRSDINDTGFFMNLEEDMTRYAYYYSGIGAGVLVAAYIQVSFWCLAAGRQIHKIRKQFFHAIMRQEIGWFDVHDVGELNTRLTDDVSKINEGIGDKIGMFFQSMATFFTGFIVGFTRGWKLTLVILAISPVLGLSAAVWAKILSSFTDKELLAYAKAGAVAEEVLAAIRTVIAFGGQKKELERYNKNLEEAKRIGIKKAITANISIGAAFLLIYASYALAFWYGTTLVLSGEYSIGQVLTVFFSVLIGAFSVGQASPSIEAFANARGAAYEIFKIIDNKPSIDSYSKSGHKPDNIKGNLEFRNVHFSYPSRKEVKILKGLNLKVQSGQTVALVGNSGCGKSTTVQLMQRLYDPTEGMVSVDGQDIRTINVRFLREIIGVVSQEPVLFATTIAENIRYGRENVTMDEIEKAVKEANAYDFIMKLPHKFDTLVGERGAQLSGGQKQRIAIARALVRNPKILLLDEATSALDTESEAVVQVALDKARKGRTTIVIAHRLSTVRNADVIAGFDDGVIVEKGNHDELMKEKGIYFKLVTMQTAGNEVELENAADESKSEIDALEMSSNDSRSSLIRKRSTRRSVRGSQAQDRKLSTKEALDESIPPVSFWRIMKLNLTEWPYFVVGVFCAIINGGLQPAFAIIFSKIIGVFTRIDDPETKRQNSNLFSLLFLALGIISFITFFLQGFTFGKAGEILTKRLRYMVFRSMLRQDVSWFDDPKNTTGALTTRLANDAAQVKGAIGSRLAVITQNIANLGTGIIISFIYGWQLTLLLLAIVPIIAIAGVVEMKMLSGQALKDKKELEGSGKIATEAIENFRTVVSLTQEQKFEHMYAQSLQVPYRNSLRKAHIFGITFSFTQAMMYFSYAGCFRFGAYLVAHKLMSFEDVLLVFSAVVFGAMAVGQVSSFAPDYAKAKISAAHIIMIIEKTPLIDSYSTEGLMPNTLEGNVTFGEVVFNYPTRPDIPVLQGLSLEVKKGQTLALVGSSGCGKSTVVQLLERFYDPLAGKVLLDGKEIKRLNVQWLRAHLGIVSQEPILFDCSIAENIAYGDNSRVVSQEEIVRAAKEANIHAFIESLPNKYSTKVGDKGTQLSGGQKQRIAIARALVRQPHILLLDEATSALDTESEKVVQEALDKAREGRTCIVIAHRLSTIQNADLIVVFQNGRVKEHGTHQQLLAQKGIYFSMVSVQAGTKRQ
Description: Passive permeability (Papp) characterizes the rate across the cell membrane due to passive diffusion. A high permeability enables the rapid establishment of equilibrium among plasma, CSF, and brain compartments. Except for passive permeability, sufficient unbound drug concentration in the brain is governed by efflux transporters, including P-gp (MDR1, ABCB1) and BCRP, at BBB. Efflux ratio (ER) reflects the liability of a compound to be pumped out of the brain by BBB efflux transporters, which is indicated by the distribution disequilibrium between the plasma and the brain compartments.
[…] The adjusted efflux ratio was used to determine if DZD1516/DZ2678 underwent active efflux. Verapamil, a P-glycoprotein (P-gp) inhibitor, was used to identify if any active transport processes were mediated through P-gp. The apical-to-basolateral (A-B) and basolateral-to-apical (B-A) transport of DZD1516/DZ2678 in HBSS (25 mM HEPES, pH 7.4) with 0.1% BSA was measured across MDCKII-MDR1 cell monolayers in the absence and presence of the P-gp inhibitor, verapamil (100 μM). The apical-to-basolateral (A-B) and basolateral-to-apical (B-A) transport of DZD1516/DZ2678 in HBSS (25 mM HEPES, pH 7.4) with 0.1% BSA was also measured across MDCKII cell monolayers in the absence and presence of the P-gp inhibitor, verapamil. Incubations were performed at approximately 37°C for 120 min, with the functionality of the test system being confirmed using 5 μM digoxin as a positive control substrate. […] determined by quantifying substrate concentration in the incubation medium of the donor compartment at the beginning of the incubation period and both donor and receiver compartments at the end of the incubation period. The data was used to calculate the apparent permeability (Papp). All incubations were performed in triplicate, and the integrity of the cell monolayers was confirmed using the marker Lucifer yellow.

[5] = molecular target: HER2 (Homo sapiens, UniProt P04626); assay: pHER2 MSD assay in BT474C1 cells; assay type: cell-based; design: endogenous in cells; host or cells: BT474C1-Luci Mono1 (BT474 transfected with luciferase only); conditions: BT474C1, 4 hrs treatment
HER2, sequence (P04626 23-1255): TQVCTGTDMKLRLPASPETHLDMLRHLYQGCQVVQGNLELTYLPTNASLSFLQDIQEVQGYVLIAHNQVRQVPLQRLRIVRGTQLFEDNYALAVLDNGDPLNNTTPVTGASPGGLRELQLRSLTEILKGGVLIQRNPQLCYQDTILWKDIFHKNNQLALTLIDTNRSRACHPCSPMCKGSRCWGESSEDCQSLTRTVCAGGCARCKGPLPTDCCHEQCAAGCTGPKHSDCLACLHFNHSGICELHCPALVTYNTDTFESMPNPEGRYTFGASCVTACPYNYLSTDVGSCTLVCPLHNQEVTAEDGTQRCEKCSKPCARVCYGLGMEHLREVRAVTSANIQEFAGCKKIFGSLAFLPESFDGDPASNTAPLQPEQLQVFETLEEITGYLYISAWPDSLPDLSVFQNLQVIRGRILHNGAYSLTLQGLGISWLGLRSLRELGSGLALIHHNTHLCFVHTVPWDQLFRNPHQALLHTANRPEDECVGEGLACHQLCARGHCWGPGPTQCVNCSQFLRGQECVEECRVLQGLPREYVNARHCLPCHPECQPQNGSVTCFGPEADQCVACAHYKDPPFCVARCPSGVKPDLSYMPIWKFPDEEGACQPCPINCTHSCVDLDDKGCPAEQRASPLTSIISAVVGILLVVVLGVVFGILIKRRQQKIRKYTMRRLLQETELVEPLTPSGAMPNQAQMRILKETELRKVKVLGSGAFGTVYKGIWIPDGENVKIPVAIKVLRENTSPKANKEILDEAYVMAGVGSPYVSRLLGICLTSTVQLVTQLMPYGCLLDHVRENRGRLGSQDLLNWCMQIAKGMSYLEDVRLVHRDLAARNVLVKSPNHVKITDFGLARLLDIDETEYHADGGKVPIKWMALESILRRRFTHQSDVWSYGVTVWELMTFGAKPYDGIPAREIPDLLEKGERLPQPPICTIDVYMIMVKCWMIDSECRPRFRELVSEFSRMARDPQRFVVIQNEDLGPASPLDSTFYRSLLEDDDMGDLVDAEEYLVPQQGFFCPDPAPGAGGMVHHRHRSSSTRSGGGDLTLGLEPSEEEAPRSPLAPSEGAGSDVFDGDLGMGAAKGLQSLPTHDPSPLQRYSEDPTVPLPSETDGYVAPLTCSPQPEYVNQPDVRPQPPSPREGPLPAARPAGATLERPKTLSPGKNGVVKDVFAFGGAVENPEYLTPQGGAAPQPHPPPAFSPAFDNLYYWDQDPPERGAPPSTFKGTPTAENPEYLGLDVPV
Procedure: as §1

[6] = tested on: P-gp-BCRP; assay: P-gp-BCRP efflux ratio, cellular transport assay; assay type: in vitro ADME, human; conditions: human, not told; 1 µM
Procedure: A discussion of the structure–activity relationship (SAR) cumulated in the design of DZD1516 (Fig. 1) is as follows. The HER2 inhibitory potency screening for SAR development was performed using HER2 and EGFR enzymatic assays. The cellular activity was evaluated in HER2+ cell line BT474C1 by measuring pHER2 and antiproliferation activities. Cellular transport assays measuring the permeability and efflux ratio of compounds in cells expressing human P-gp (MDR1) and BCRP were used to provide essential information for assessing their BBB penetration potential.

SMILES | GI50 ([1]; Homo sapiens) [nM] | IC50 [3] [nM] | GI50 [1] [nM] | IC50 [5] [nM] | hepatocyte CLint [2] [µL/min/1e6 cells] | further results
CCOc1cc2ncc(C#N)c(Nc3ccc(OCc4ccccn4)c(Cl)c3)c2cc1NC(=O)/C=C/CN(C)C [Neratinib, reference compound] | 1.3 | – | – | – | 7.7 | –
Cc1cc(Nc2ncnc3ccc(NC4=NC(C)(C)CO4)cc23)ccc1Oc1ccn2ncnc2c1 [Tucatinib, reference compound] | 10 | 2770 | – | 1.7 | 12.5 | efflux ratio at 120 min, 1 µM ([4]; human, MDCK-MDR1, pH 7.4): 6.2; efflux ratio at 1 µM [6]: 64
COc1cc(O[C@@H]2CCN(C)CC2(F)F)c2c(Nc3ccc(Oc4ccn5ncnc5c4)c(C)c3)ncnc2c1 [Cpd-4] | – | – | 67 | 44 | – | Human Heps Clint [2]: 20.1 (µL/min)/(10^6 cells)

The next lines start with results.

GI50 ([1]; Homo sapiens) [nM] | IC50 [3] [nM] | GI50 [1] [nM] | IC50 [5] [nM] | SMILES | hepatocyte CLint [2] [µL/min/1e6 cells] | further results
– | > 10000 | 91 | 18 | Cc1cc(Nc2ncnc3cccc(OC4CCN(C)CC4)c23)ccc1Oc1ccn2ncnc2c1 [Cpd-1] | – | Efflux ratio P-gp @1 µM [4]: 1.5
0.7 | – | – | 0.66 | CCOc1cc2ncc(C#N)c(Nc3ccc(OCc4ccccn4)c(Cl)c3)c2cc1NC(=O)/C=C/[C@H]1CCCN1C [Pyrotinib, reference compound] | – | –
13 | – | – | – | CS(=O)(=O)CCNCc1ccc(-c2ccc3ncnc(Nc4ccc(OCc5cccc(F)c5)c(Cl)c4)c3c2)o1 [Lapatinib] | – | –

From PMC10327353 (Breast Cancer Research : BCR, 2023)
